Assay results from EP0335745A1, “Process for producing pyrid-4-ones” (THE ROYAL FREE HOSPITAL SCHOOL OF MEDICINE, priority 1988, dated 1989).
Where two headings read alike, the source gives them in different places.

What was measured:
[1] = tested on: iron loaded ⁵⁹Fe transferrin labelled mice; assay: Iron mobilisation (59Fe excretion) from iron loaded 59Fe transferrin labelled mice; assay type: in vivo; settings: dose 10mg; for %⁵⁹Fe excretion X ± SE: mice 31-35g, mean of 3 days before chelator administration = 100%
Excerpt: Iron mobilisation from iron loaded ⁵⁹Fe transferrin labelled mice by the 1-alkyl-2-ethyl-3-hydroxypyrid-4-ones was studied as previously described.

male Sprague Dawley rats = assay: Lethal dose range in rats, intraperitoneal administration; assay type: in vivo
Experimental: The three 1-alkyl-3-hydroxy-2-methylpyrid-4-ones dissolved in phosphate buffer saline were administered intraperitoneally to groups of three male Sprague Dawley rats (60-90g) at different doses until a near maximum non-lethal dose was established.

loaded mice and rabbits = settings: doses of up to 200 mg/kg, also non iron loaded mice; cited from earlier work
human transferrin = biological target: T1, human transferrin (Homo sapiens, UniProt P02787); assay: Iron mobilisation from 59Fe transferrin by dialysis against chelator solution; assay type: biochemical; settings: chelator 4x10⁻³M, 37°C, pH 7.3, 2 x PBS
T1 construct: purchased Sigma
Experimental: Human apotransferrin (Sigma) was radioactively labelled with ⁵⁹Fe and saturated with iron as previously described. Samples (1.5ml) of the ⁵⁹Fe transferrin (0.54mg protein, 0.75 µg iron, 0.07 µCi ⁵⁹Fe) were enclosed in a dialysis bag and dialysed against a chelator solution (10ml, 4mM) by continuous stirring at 37°C. Samples (1ml) of the dialysate were removed at different time intervals, the ⁵⁹Fe activity measured and then returned back into the incubation mixture. Ferritin solution and haemosiderin solid were isloated from a spleen of a thalassemia patient and samples containing the same amount of iron (0.25mg, 1.5ml) were dialysed at 37°C against a chelator solution (4mM, 10ml) over a 12 day period. The amount of iron immobilised was estimated spectrophotometrically by measuring the visible absorbance of the dialysate and by using the extinction coefficient of the chelator iron complex (Fig 3, Table 6). All the protein incubations with the chelators were carried out in the 2xPBS pH 7.3.
Haemosiderin (0.25mg iron, 16.5% w/w iron, […]) ferritin (0.25mg iron, 10.7% w/w iron, 1.5ml) and transferrin (0.75ug iron, 0.54mg protein, 0.07 uCi ⁵⁹Fe, 1.5ml) in dialysis bags were dialysed against the chelators (4x10⁻³M, 10ml) at 37°C, pH 7.3 in 2 x PBS by continuous stirring. Iron mobilisation was estimated from samples of the dialysates taken at different time intervals as explained in the Materials and Methods section.

red blood cells = assay: Red blood cell permeability: incorporation of 59Fe into red blood cells in the presence of the chelators; assay type: cell-based; settings: iron 2.5 x 10⁻⁵M, chelators 18 x 10⁻⁵M, packed red blood cells, 37°C
Experimental: (§1) The partition coefficients of the chelators and their iron complexes were determined using a mixture of n-octanol and phosphate buffer saline at pH 7.3 as previously described. The effect of the chelators on the incorporation of iron containing traces of ⁵⁹Fe into red blood cells was studied as previously described by incubating the chelator iron complexes with packed red blood cells at 37°C, withdrawing aliquots, centrifuging and measuring the incorporation of ⁵⁹Fe into the red blood cells.

[2] = n-octanol/water (PBS) partition coefficient (K par) of the chelators and their iron complexes; assay type: physicochemical; settings: for Kpar Chelator / Kpar iron Complex: n-octanol/phosphate buffer saline (PH 7.3), Table 7; for Kpar Chelator / K par Chelator: free chelator; for K par Chelator / K par Iron Complex: n-octanol/water (PBS), Table 4; for K par Iron Complex: iron complex of the chelator
Experimental: The n-octanol/water (PBS) partition coefficients (K par) of the chelators and their iron complexes were determined using a previously determined method.
as §1

[3] = pKa determination of the chelators; assay type: physicochemical
haemosiderin = assay: Iron mobilisation from haemosiderin by dialysis against chelator solution; assay type: biochemical, human; settings: chelator 4x10⁻³M, 37°C, pH 7.3, 2 x PBS, * = duplicate samples
Experimental: • Fig 1: pH titration of the chelator iron complexes. Chelators (2mM in 0.1M NaCl, 25ml) and freshly prepared iron (III) chloride (0.5mM in 0.1M NaCl, 25ml) were mixed and titrated with HCl (10M) and NaOH (5M). The absorbance of the chelator iron mixture at 460nm was measured after each pH change. 1-Methyl- (Δ), 1-ethyl- (□) and 1-propyl- (◇) -2-ethyl-3-hydroxypyrid-4-ones. • Fig 2: • A. Job plots of the 1-alkyl-2-ethyl-3-hydroxypyrid-4-ones with iron at pH 7.3. Chelators (2mM in […] 0-5ml) and iron (2mM in 0.1M NaCl, 0-5ml) were mixed at different molar ratios to a final volume of 5ml. 4 x PBS (5ml), pH 7.3 was then added and the absorbance at 460nm measured. […] Theoretical Job plots for 1:1, 2:1, 3:1 chelator:iron complexes were obtained using the maximum absorbance values from the Job plots in A. 1:1 (◇) 2:1 (□), 3:1 (Δ). • Fig. 3: Iron mobilisation from human ferritin and haemosiderin using 1-alkyl-2-ethyl-3-hydroxypyrid-4-ones. […] The progress of the reaction was followed by measuring the absorbance at 460nm of the dialysate at different time intervals.
Human apotransferrin (Sigma) was radioactively labelled with ⁵⁹Fe and saturated with iron as previously described. […] Samples (1ml) of the dialysate were removed at different time intervals, the ⁵⁹Fe activity measured and then returned back into the incubation mixture. […]

[4] = male, Sprague Dawley, rat, in vivo, ip
[5] = pKa of the hydroxyl group, read-out: Pka(2)

T1 sequence (P02787 20-698): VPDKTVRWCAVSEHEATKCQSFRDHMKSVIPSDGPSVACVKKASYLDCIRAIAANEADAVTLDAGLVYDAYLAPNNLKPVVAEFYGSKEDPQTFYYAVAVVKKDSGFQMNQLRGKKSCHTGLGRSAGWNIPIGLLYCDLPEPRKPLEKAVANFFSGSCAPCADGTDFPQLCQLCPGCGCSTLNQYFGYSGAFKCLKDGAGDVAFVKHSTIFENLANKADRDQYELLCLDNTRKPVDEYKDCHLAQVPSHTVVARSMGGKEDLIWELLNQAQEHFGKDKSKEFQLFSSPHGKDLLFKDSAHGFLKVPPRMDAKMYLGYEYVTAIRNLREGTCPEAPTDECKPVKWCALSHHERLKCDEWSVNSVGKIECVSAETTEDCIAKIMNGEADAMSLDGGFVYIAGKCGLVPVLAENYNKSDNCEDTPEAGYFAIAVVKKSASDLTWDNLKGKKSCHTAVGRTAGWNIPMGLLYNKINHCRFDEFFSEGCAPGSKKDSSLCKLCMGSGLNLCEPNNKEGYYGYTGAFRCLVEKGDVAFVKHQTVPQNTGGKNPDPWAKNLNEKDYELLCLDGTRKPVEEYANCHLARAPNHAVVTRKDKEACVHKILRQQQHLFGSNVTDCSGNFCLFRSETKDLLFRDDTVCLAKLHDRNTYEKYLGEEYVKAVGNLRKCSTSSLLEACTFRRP

| Compound | %⁵⁹Fe excretion X ± SE ([1]; ip) [%] | Lethal Dose (range) (male Sprague Dawley rats; [4]) [mg/kg] | increasing iron excretion (loaded mice and rabbits) | Percentage Iron Removal Transferrin ⁵⁹Fe 1h (human transferrin) | Percentage Iron Removal Transferrin ⁵⁹Fe 2h (human transferrin) | Percentage Iron Removal Transferrin ⁵⁹Fe 8h (human transferrin) | ⁵⁹Fe incorporation (%) 20 min (red blood cells) [%] | ⁵⁹Fe incorporation (%) 1h (red blood cells) [%] | Kpar Chelator [2] | Kpar iron Complex [2] | K par Chelator [2] | K par Iron Complex [2] | pKa [3, 5] | pKa ([3]; read-out: PKa(1)) | Lethal Dose (range) (male Sprague Dawley rats; rats, intraperitoneally, range of doses, the higher being lethal and the lower a non-lethal dose) [mg/kg] | %⁵⁹Fe excretion X ± SE ([1]; ig) [%] | death of mice before the completion of the treatment ([1]; mice, ip or ig, 11 administrations) | Percentage Iron Removal Haemosiderin 24h (haemosiderin; 24h) | Percentage Iron Removal Haemosiderin 12d (haemosiderin; 12d) |
| --- | --- | --- | --- | --- | --- | --- | --- | --- | --- | --- | --- | --- | --- | --- | --- | --- | --- | --- | --- |
| CC(=O)N(O)CCCCCNC(=O)CCC(=O)N(O)CCCCCNC(=O)CCC(=O)N(O)CCCCCN [Desferrioxamine, reference compound] | 381 ± 49 | – | – | – | – | – | – | – | – | – | – | – | – | – | – | – | – | – | – |
| Cc1c(O)c(=O)ccn1C [Example 1, 1,2-Dimethyl-3-hydroxypyrid-4-one] | – | 600 to 700 | effective | 37.3 | 69.9 | 99.5 | 5.0 | 5.0 | 0.19 | 0.24 | 0.19 | 0.24 | 9.7 | 3.3 | – | – | – | – | – |
| CCn1ccc(=O)c(O)c1C [Example 2, 1-Ethyl-3-hydroxy-2-methylpyrid-4-one] | – | – | effective | – | – | – | 5.0 | 10 | 0.47 | 0.52 | 0.37 | 0.52 | 10.3 | 3.6 | 400 to 500 | – | – | – | – |
| CCCn1ccc(=O)c(O)c1C [Example 3, 3-Hydroxy-2-methyl-1-propylpyrid-4-one] | – | 150 to 200 | – | – | – | – | 85 | 86 | – | – | – | – | 10.2 | 3.7 | – | – | – | – | – |
| CCc1c(O)c(=O)ccn1C [Example 4, 2-Ethyl-3-hydroxy-1-methylpyrid-4-one] | 415 ± 42 | – | – | 36.0 | 56.6 | 100.0 | – | – | – | – | 0.4 | 0.02 | 9.8 | 3.7 | – | 362 ± 53 | – | – | – |
| CCc1c(O)c(=O)ccn1CC [Example 5, 1,2-diethyl-3-hydroxypyrid-4-one] | 371 ± 46 | – | – | 24.9 | 51.8 | 96.6 | – | – | – | – | 1.4 | 0.28 | 10.1 | 3.7 | – | 309 ± 22 | – | – | – |
| CCCn1ccc(=O)c(O)c1CC [Example 6, 2-ethyl-3-hydroxy-1-propylpyrid-4-one] | 334 ± 64 | – | – | 23.2 | 50.3 | 97.6 | – | – | – | – | 4.2 | 9.68 | 10.1 | 3.4 | – | 163 ± 25 | caused death to two mice | 27.8 | 74.5 |
